The values that follow come from US8273761B2, “Tricyclic compound and medical use thereof” (Takeda Pharmaceutical Company Limited, priority 2006, dated 2012).

Data set [1] has as its target T1, human melatonin 2 receptors (human MT2 receptors) (Homo sapiens, UniProt P49286).
T1 construct: expressed in transfected cells
T1 sequence (P49286 1-362): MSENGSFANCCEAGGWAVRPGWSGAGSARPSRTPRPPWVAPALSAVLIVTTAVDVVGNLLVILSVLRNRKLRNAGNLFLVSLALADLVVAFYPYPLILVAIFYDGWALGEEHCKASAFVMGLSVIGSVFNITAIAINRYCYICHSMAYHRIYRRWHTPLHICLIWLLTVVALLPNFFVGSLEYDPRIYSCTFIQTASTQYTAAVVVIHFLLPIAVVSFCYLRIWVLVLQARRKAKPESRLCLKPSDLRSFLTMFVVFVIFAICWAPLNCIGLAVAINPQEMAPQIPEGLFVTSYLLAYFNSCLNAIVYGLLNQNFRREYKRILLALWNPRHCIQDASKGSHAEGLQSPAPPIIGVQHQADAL
The data set is described as follows: Melatonin receptor binding inhibitory test (MT2). The conditions noted are these: 2-[125I] Iodomelatonin 1 nM solution, membrane fraction of CHO-hMT2 cells, 25° C. for 2.5 hr. How it is done: Melatonin Receptor Binding Inhibitory Test (2) Preparation of CHO-hMT2 Cells Expressing Human Melatonin 2 Receptors A cDNA fragment (SEQ ID NO: 2) encoding full-length of human melatonin 2 receptors (human MT2 receptors) was incorporated into expression vector pCMV-Script (Stratagene, #212220) to give the plasmid that was pCMV-human MT2 receptors expression vector for animal cell expression. CHO-K1 cells (ATCC, #CCL-61) were plated at the concentration of 1.5×10^5 cells/cm^2 in a 6 well plate (ASAHI TECHNO GLASS), and cultured under the conditions of 37° C., 5% CO2 for 24 hr. For gene transfection, solution obtained by blending pCMV-human MT2 receptors expression vector (1.9 μg), Lipofectamine Transfection Reagent (Invitrogen, #18324-012) (11.3 μL) and Minimum Essential Medium Eagle (MEM) medium (Sigma, M8042) (93.8 μL), and reacting at room temperature for 20 min was added to the cells per one well. The transfected cells were cultured in MEM medium containing 10% FBS (Life Technology) and 300 μg/mL Geneticin (GIBCO, #10131), and the cell line that stably expressed the plasmid gene was selected. By a receptor binding assay using 2-[^125I] […] (3) Preparation of Cellular Membrane Fraction of CHO Cell (CHO-hMelR7 and CHO-hMT2) Stably Expressing Human MT1 and MT2 Receptors CHO-hMelR7 and CHO-hMT2 cells were plated using Cellfactory (Nunc, #170009) under the conditions of 1×10^8 cells/2000 mL/flask. The cells were grown to confluent, and recovered by the following method. As the medium for CHO-hMelR7 and CHO-hMT2, MEM α containing 10% FBS and penicillin/streptomycin was used. 300 ng/mL of geneticin was added to the medium for CHO-hMT2. The medium was discarded, cells were washed twice with 200 mL of EDTA/PBS(-), 200 mL of EDTA/PBS(-) was further added, and the cells were stood still at room temperature for 20 min until they were released. The cells were recovered in four 50 mL tubes (Becton Dickinson, #352070), and centrifuged at 1,500 rpm for 10 min at 4° C. using a low speed cooling centrifuge (Hitachi, CF7D2). The supernatant was discarded, the pellets in the four tubes were suspended in 10 mL of PBS(-), and combined in one tube (Becton Dickinson, #352070). The mixture was further centrifuged at 1,500 rpm for 10 min at 4° C., and the obtained pellets were suspended in 20 mL of ice-cooled homogenizing buffer [10 mM NaHCO3, 5 mM EDTA, Protease inhibitor Complete (Roche), pH 7.4]. The cell suspension was homogenized 3 times using a polytron homogenizer at 20,000 rpm for 30 sec. The obtained homogenate was centrifuged (2,000 rpm, 10 min, 4° C.) using a low speed cooling centrifuge. The supernatant was recovered in an ultracentrifugation tube and ultracentrifuged (40,000 rpm, 60 min, 4° C.) using an ultracentrifuge (Beckman, […]). To the obtained pellets was added a suspending buffer [50 mM Tris-HCl, 1 mM EDTA, Protease inhibitor Complete (Roche), pH 7.4], and the pellets were suspended by pipetting. The protein concentration of this suspension was measured, diluted to 2 mg/mL to give cellular membrane fractions of CHO-hMelR7 and CHO-hMT2 cells. […] Protein was quantified using BCA protein assay kit (Pierce) with BSA as the standard. (4) Preparation of Membrane Fraction Suspension Immediately before use, the membrane fractions of CHO-hMelR7 and CHO-hMT2 cells of the above-mentioned (3) were diluted 20-fold with assay buffer (50 mM Tris-HCl, pH 7.7). (5) Preparation of 2-[^125I] […] (6) Binding Reaction The assay buffer (80 μL) of the above-mentioned (4) was added to each well of a 96-well plate (type 3363, Corning). […] (7) Measurement Using a cell harvester (PerkinElmer), the binding reaction mixture in each well of the 96-well plate was transferred to a treated (immersed in 50 mM Tris, pH 7.7 in advance) filter plate (UniFilter GF/C, PerkinElmer) and filtered.

Data set [2] deals with T2, human melatonin 1 receptors (human MT1 receptors) (Homo sapiens, UniProt P48039).
T2 construct: expressed in transfected cells
The data set is described as follows: Melatonin receptor binding inhibitory test (MT1). The conditions noted are these: 2-[125I] Iodomelatonin 400 pM solution, membrane fraction of CHO-hMelR7 cells, 25° C. for 2.5 hr. The protocol: Biochim Biophys Acta. Vol. 1219(2), pp. 251-259, 1994) to give plasmid pAKKO-hMelR7 for animal cell expression. CHO/dhfr-cells (ATCC, #CRL-9096) were plated at a concentration of 0.3×10^6 cells/dish in a 6 cm culture dish (Becton Dickinson), and cultured under the conditions of 37° C., 5% CO2 for 48 hr. The cells were transfected with pAKKO-hMelR7 plasmid DNA (5 μg) using […] Transfection Kit (Amersham, #27-9268-01). The transfected cells were cultured in Dulbecco's modified Eagle medium (DMEM) (Sigma, #D6046) containing 10% dialyzed FBS ([…]), 1× Non-Essential Amino Acid (Invitrogen, #11140-050) and 50 μg/mL Gentamycin (Invitrogen, #15750-060), and the cell line that stably expressed the plasmid gene was selected. By a receptor binding assay using 2-[^125I] […] (3) Preparation of Cellular Membrane Fraction of CHO Cell (CHO-hMelR7 and CHO-hMT2) Stably Expressing Human MT1 and MT2 Receptors CHO-hMelR7 and CHO-hMT2 cells were plated using Cellfactory (Nunc, #170009) under the conditions of 1×10^8 cells/2000 mL/flask. The cells were grown to confluent, and recovered by the following method. As the medium for CHO-hMelR7 and CHO-hMT2, MEM α containing 10% FBS and penicillin/streptomycin was used. 300 ng/mL of geneticin was added to the medium for CHO-hMT2. The medium was discarded, cells were washed twice with 200 mL of EDTA/PBS(-), 200 mL of EDTA/PBS(-) was further added, and the cells were stood still at room temperature for 20 min until they were released. The cells were recovered in four 50 mL tubes (Becton Dickinson, #352070), and centrifuged at 1,500 rpm for 10 min at 4° C. using a low speed cooling centrifuge (Hitachi, CF7D2). The supernatant was discarded, the pellets in the four tubes were suspended in 10 mL of PBS(-), and combined in one tube (Becton Dickinson, #352070). The mixture was further centrifuged at 1,500 rpm for 10 min at 4° C., and the obtained pellets were suspended in 20 mL of ice-cooled homogenizing buffer [10 mM NaHCO3, 5 mM EDTA, Protease inhibitor Complete (Roche), pH 7.4]. The cell suspension was homogenized 3 times using a polytron homogenizer at 20,000 rpm for 30 sec. The obtained homogenate was centrifuged (2,000 rpm, 10 min, 4° C.) using a low speed cooling centrifuge. The supernatant was recovered in an ultracentrifugation tube and ultracentrifuged (40,000 rpm, 60 min, 4° C.) using an ultracentrifuge (Beckman, […]). To the obtained pellets was added a suspending buffer [50 mM Tris-HCl, 1 mM EDTA, Protease inhibitor Complete (Roche), pH 7.4], and the pellets were suspended by pipetting. The protein concentration of this suspension was measured, diluted to 2 mg/mL to give cellular membrane fractions of CHO-hMelR7 and CHO-hMT2 cells. […] Protein was quantified using BCA protein assay kit (Pierce) with BSA as the standard. (4) Preparation of Membrane Fraction Suspension Immediately before use, the membrane fractions of CHO-hMelR7 and CHO-hMT2 cells of the above-mentioned (3) were diluted 20-fold with assay buffer (50 mM Tris-HCl, pH 7.7). (5) Preparation of 2-[^125I] […] (6) Binding Reaction The assay buffer (80 μL) of the above-mentioned (4) was added to each well of a 96-well plate (type 3363, Corning). […] (7) Measurement Using a cell harvester (PerkinElmer), the binding reaction mixture in each well of the 96-well plate was transferred to a treated (immersed in 50 mM Tris, pH 7.7 in advance) filter plate (UniFilter GF/C, PerkinElmer) and filtered. After filtration, the plate was washed 4 times with the assay buffer, and dried in a dryer (42° C.) for 2 hr or more. 25 μL of a liquid scintillator (MicroScint O, PerkinElmer) was added to each well of the filter plate after drying, and the luminescence of scintillator was measured by TopCount (PerkinElmer) for 1 min. Specific binding is a value obtained by subtracting nonspecific binding from the total binding.

T2 sequence (P48039 whole entry): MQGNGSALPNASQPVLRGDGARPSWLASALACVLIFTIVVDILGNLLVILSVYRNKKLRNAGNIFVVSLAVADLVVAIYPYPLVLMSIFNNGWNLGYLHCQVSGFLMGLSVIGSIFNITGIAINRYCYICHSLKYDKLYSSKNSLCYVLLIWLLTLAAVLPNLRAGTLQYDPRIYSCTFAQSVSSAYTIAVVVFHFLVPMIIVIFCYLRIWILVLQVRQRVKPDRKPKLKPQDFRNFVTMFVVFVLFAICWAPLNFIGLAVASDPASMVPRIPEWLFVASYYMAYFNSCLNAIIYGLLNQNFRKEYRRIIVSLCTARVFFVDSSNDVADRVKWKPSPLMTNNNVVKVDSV

A word on the IC50: it is the midpoint of a concentration-inhibition curve. Low values mean higher potency, high ones lower potency. What is called melting point is the temperature of the solid-liquid transition. Take `CCC(=O)NCCc1cnn2ccc3occc3c12` [Example 1, N-(2-furo[3,2-c]pyrazolo[1,5-a]pyridin-1-ylethyl)propanamide]: the melting point was 104 to 106 °C. For the same molecule, the IC50 in data set [1] is no more than 0.1 µM. Molecule `CC(=O)NCCC1CCc2cnc3c(c21)CCO3` (centres unmarked) [Example 19, N-[2-(1,6,7,8-tetrahydro-2H-cyclopenta[d]furo[2,3-b]pyridin-8-yl)ethyl]acetamide] displayed a half-inhibitory concentration (IC50) in data set [2] of no more than 0.1 µM.

Turning to `O=C(NCCC1CCc2cnc3c(c21)CCO3)C1CC1` (centres unmarked) [Example 26, N-[2-(1,6,7,8-tetrahydro-2H-cyclopenta[d]furo[2,3-b]pyridin-8-yl)ethyl]cyclopropanecarboxamide], in data set [2], the IC50 is no more than 0.1 µM. As for `CCC(=O)NC/C=C1\CCc2ncc3c(c21)CCO3` [Example 32, N-[(2E)-2-(1,2,6,7-tetrahydro-8H-cyclopenta[b]furo[3,2-d]pyridin-8-ylidene)ethyl]propanamide], the melting point fell in the range of 163 to 164 °C.
